Assay results from patent publication US20030003088A1, “Human pancreatic pluripotential stem cell line” (Board of Trustees operating Michigan State University, priority 2001, published 2003).
Entries after “also recorded” stand apart in the source; their conditions may differ.

Key:
HPDE6c7 cells [1] = test: Induction of insulin production / release into the media; assay type: cell-based, human; conditions: for synthesis and release of insulin / appearance of insulin in the media: preliminary data
HPDE6c7 cells [2] = test: GJIC competence under c-AMP elevating agents, Lucifer yellow dye transfer; assay type: cell-based, human; conditions: in KBM, 48 hours
Method: The ability of the HPDE6c7 cells to communicate via gap junctions under various growth conditions was measured using the lucifer yellow dye transfer method as developed by El-Fouly et al. (Exp. Cell Res. 168: 422-430 (1987)). Briefly, near confluent cultures of the cells grown as in Example 1 were subjected to the desired treatment, either growth in KBM or KBM containing c-AMP elevating agents such as forskolin or forskolin and 3-isobutyl-1-methylxanthine (IBMX), both from Sigma Chemical Co., St. Louis, Mo. Then, lucifer yellow was loaded into the cells by making two or three scrape lines in the monolayer with a sharp scalpel. […] Quantifying the extent of communication was done using an image analysis program.

HPDE6c7 cells [3] = test: Assay (A): inhibition of forskolin-induced GJIC, Lucifer yellow dye transfer, PAH given at every medium change; assay type: cell-based, human; conditions: for GJIC, Average (% change over control at −30 min), −30 min / GJIC, Average (% change over control at −30 min), 0 hr / GJIC, Average (% change over control at −30 min), 24 hr / GJIC, Average (% change over control at −30 min), 48 hr / GJIC, Average (% change over control at −30 min), 72 hr: 70 μM PAH given at every medium change; for GJIC, Average (% change over control at −30 min), −30 min: at time of addition; for GJIC, Average (% change over control at −30 min), 0 hr / GJIC, Average (% change over control at −30 min), 24 hr / GJIC, Average (% change over control at −30 min), 48 hr / GJIC, Average (% change over control at −30 min), 72 hr: forskolin 5 μM; for inhibition of GJIC induced by forskolin: 70 μM, PAH at every medium change
HPDE6c7 cells [4] = test: Assay (B): inhibition of forskolin-induced GJIC, Lucifer yellow dye transfer, PAH given only at time −30 min; conditions: for GJIC, Average (% change over control at −30 min), −30 min / GJIC, Average (% change over control at −30 min), 0 hr / GJIC, Average (% change over control at −30 min), 24 hr / GJIC, Average (% change over control at −30 min), 48 hr / GJIC, Average (% change over control at −30 min), 72 hr: 70 μM PAH given at time −30 min only; for GJIC, Average (% change over control at −30 min), −30 min: at time of addition; for GJIC, Average (% change over control at −30 min), 0 hr / GJIC, Average (% change over control at −30 min), 24 hr / GJIC, Average (% change over control at −30 min), 48 hr / GJIC, Average (% change over control at −30 min), 72 hr: forskolin 5 μM
HPDE6c7 cells [5] = test: Growth of cells in culture with growth factors; assay type: cell-based, human
[6] = system: insulin promoter in HPDE6c7 cells; test: Insulin promoter activity, AdINSGFP (GFP under insulin promoter) infected cells; assay type: cell-based, human
Method: To determine whether the insulin promoter in the HPDE6c7 cells is active, the cells were infected with adenovirus AdINSGFP, a virus vector that expresses the Green Fluorescence Protein (GFP) under the regulation of the insulin promoter.
Nicotinamide is known to affect cell differentiation. Therefore, the effect of nicotinamide on the activity of the insulin promoter in HPDE6c7 cells was determined. The […] cells were plated on plastic cell culture dishes for two days. Then the cells were infected with about 50 pfu/cell AdINSGFP for one hour. Afterwards, the cells were washed and incubated for three days in KBM containing 10 mM nicotinamide.

cholera toxin
induction of insulin production (HPDE6c7 cells [1]): induce the HPDE6c7 cells to produce insulin

C=C[C@@]1(C)CC(=O)[C@]2(O)[C@@]3(C)[C@@H](O)CCC(C)(C)[C@@H]3[C@H](O)[C@H](OC(C)=O)[C@@]2(C)O1 [forskolin]
increase in GJIC relative to complete keratinocyte serum-free medium (KSFM) (HPDE6c7 cells [2]): 2.2 fold

Cc1ccc2cc3ccccc3cc2c1 [2-MeA, 2-methylanthracine]
GJIC, Average (% change over control at −30 min), −30 min (HPDE6c7 cells [3]): 100.00%
GJIC, Average (% change over control at −30 min), 0 hr (HPDE6c7 cells [3]): 102.06%
GJIC, Average (% change over control at −30 min), 24 hr (HPDE6c7 cells [3]): 197.60%
GJIC, Average (% change over control at −30 min), 48 hr (HPDE6c7 cells [3]): 227.15%
GJIC, Average (% change over control at −30 min), 72 hr (HPDE6c7 cells [3]): 271.19%
inhibition of GJIC induced by forskolin (HPDE6c7 cells [3]): did not
GJIC, Average (% change over control at −30 min), −30 min (HPDE6c7 cells [4]): 100.00%
GJIC, Average (% change over control at −30 min), 0 hr (HPDE6c7 cells [4]): 89.95%
GJIC, Average (% change over control at −30 min), 24 hr (HPDE6c7 cells [4]): 265.70%
GJIC, Average (% change over control at −30 min), 48 hr (HPDE6c7 cells [4]): 260.89%
GJIC, Average (% change over control at −30 min), 72 hr (HPDE6c7 cells [4]): 260.89%

hepatocyte growth factor: growth factor (mitogen)
synthesis and release of insulin / appearance of insulin in the media (HPDE6c7 cells [1]): appear to synthesize and release insulin
growth of the cells (HPDE6c7 cells [5]): an increase in growth of the cells

NC(=O)c1cccnc1 [nicotinamide]
activation of the insulin promoter (GFP expressing cells) ([6]; 10 mM in KBM, three days): induces a substantial number of cells to activate the insulin promoter
induction of insulin production (HPDE6c7 cells [1]): induce the HPDE6c7 cells to produce insulin
synthesis and release of insulin / appearance of insulin in the media (HPDE6c7 cells [1]): appear to synthesize and release insulin

Cc1cccc2cc3ccccc3cc12 [1-MeA, 1-methylanthracine]
GJIC, Average (% change over control at −30 min), −30 min (HPDE6c7 cells [3]): 100.00%
GJIC, Average (% change over control at −30 min), 0 hr (HPDE6c7 cells [3]): 89.37%
GJIC, Average (% change over control at −30 min), 24 hr (HPDE6c7 cells [3]): 92.24%
GJIC, Average (% change over control at −30 min), 48 hr (HPDE6c7 cells [3]): 81.77%
GJIC, Average (% change over control at −30 min), 72 hr (HPDE6c7 cells [3]): 212.39%
inhibition of GJIC induced by forskolin (HPDE6c7 cells [3]): inhibited GJIC that had been induced by forskolin
GJIC, Average (% change over control at −30 min), −30 min (HPDE6c7 cells [4]): 100.00%
GJIC, Average (% change over control at −30 min), 0 hr (HPDE6c7 cells [4]): 77.04%
GJIC, Average (% change over control at −30 min), 24 hr (HPDE6c7 cells [4]): 233.32%
GJIC, Average (% change over control at −30 min), 48 hr (HPDE6c7 cells [4]): 246.93%
GJIC, Average (% change over control at −30 min), 72 hr (HPDE6c7 cells [4]): 261.32%
lethal effects on the cells / cytotoxicity (HPDE6c7 cells [4]; 70 μM, PAH at −30 min only): no lethal effects; also recorded: not cytotoxic
reversibility of the inhibition of GJIC (HPDE6c7 cells [4]; 70 μM, PAH at −30 min only): reversible

sonic hedgehog
turning on the promoter for the insulin gene [6]: can turn on the promoter for the insulin gene
induction of insulin production (HPDE6c7 cells [1]): induce the HPDE6c7 cells to produce insulin

B1: beta-cellulin: growth factor (mitogen) (protein, UniProt P35070 32-111, looked up)
Betacellulin: DGNSTRSPETNGLLCGDPEENCAATTTQSKRKGHFSRCPKQYKHYCIKGRCRFVVAEQTPSCVCDEGYIGARCERVDLFY
growth of the cells (HPDE6c7 cells [5]): an increase in growth of the cells
